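Protocol summary: plate cells (96-well), add compound at 5 concentrations, incubate 48 h, interpolate endpoints linearly. GI50 is the concentration that inhibits growth by half. TGI: concentration producing complete growth inhibition.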
How the values were obtained:
Experiment in all cases: NCI anticancer screen, dose series, 48 h
A498 renal = test system: A498 renal
MALME-3M melanoma = test system: MALME-3M melanoma
NCI-H460 lung = test system: NCI-H460 lung
SF-539 CNS = test system: SF-539 CNS
SNB-19 CNS = test system: SNB-19 CNS
UACC-257 melanoma = test system: UACC-257 melanoma
NCI-H522 lung = test system: NCI-H522 lung
BT-549 breast = test system: BT-549 breast
T-47D breast = test system: T-47D breast
MCF7 breast = test system: MCF7 breast

Cc1nc(C(N)=O)c(N)n1CCN1CCN(C(=O)CCCCCCCCCCNC2N=CNc3nc[nH]c32)CC1 (configuration not stated)
TGI (A498 renal): > 100 µM | TGI (MALME-3M melanoma): > 100 µM | TGI (NCI-H460 lung): > 100 µM | TGI (SF-539 CNS): > 100 µM | TGI (SNB-19 CNS): > 100 µM | TGI (UACC-257 melanoma): 45.7 µM

Cc1cc2c(C)nn(Cc3ccccc3)c2c(C(=O)O)c1C
TGI (MALME-3M melanoma): > 100 µM | TGI (SF-539 CNS): > 100 µM | TGI (SNB-19 CNS): > 100 µM | TGI (UACC-257 melanoma): > 100 µM

C[N+](C)(C)CCC(=O)CC[N+](C)(C)C
TGI (A498 renal): > 100 µM | TGI (MALME-3M melanoma): 47.6 µM | TGI (NCI-H460 lung): 76.9 µM | TGI (NCI-H522 lung): 29.4 µM | TGI (SF-539 CNS): 41 µM | TGI (SNB-19 CNS): > 100 µM | TGI (UACC-257 melanoma): 35.9 µM

O=C1C[C@H]2CCCN2[C@@H](c2ccccc2)C1
TGI (A498 renal): > 100 µM | TGI (MALME-3M melanoma): > 100 µM | TGI (NCI-H460 lung): > 100 µM | TGI (NCI-H522 lung): > 100 µM | TGI (SF-539 CNS): > 100 µM | TGI (SNB-19 CNS): > 100 µM | TGI (UACC-257 melanoma): > 100 µM

COc1cc(/C=C/C(=O)/C=C/c2cc(OC)c3c(c2)OCO3)cc2c1OCO2
GI50 (A498 renal): > 100 µM | TGI (A498 renal): > 100 µM | GI50 (BT-549 breast): 3.02 µM | TGI (BT-549 breast): 8.81 µM | GI50 (MALME-3M melanoma): > 100 µM | TGI (MALME-3M melanoma): > 100 µM | GI50 (NCI-H460 lung): > 100 µM | TGI (NCI-H460 lung): > 100 µM | GI50 (NCI-H522 lung): 14.5 µM | TGI (NCI-H522 lung): > 100 µM | GI50 (SF-539 CNS): 22.6 µM | TGI (SF-539 CNS): > 100 µM | GI50 (SNB-19 CNS): 10.3 µM | TGI (SNB-19 CNS): > 100 µM | GI50 (T-47D breast): 9.62 µM | TGI (T-47D breast): > 100 µM | GI50 (UACC-257 melanoma): 3.52 µM | TGI (UACC-257 melanoma): 41.9 µM

O=c1cc(-c2cccs2)[nH]c2cc3c(cc12)OCO3
TGI (A498 renal): 16.2 µM | TGI (MALME-3M melanoma): > 100 µM | TGI (NCI-H460 lung): > 39.1 µM | TGI (NCI-H522 lung): 6.92 µM | TGI (SF-539 CNS): 12.7 µM | TGI (SNB-19 CNS): > 100 µM | TGI (UACC-257 melanoma): > 100 µM

CCc1cccc(C)c1NS(=O)(=O)c1ccccc1
TGI (A498 renal): > 100 µM | TGI (MALME-3M melanoma): > 100 µM | TGI (NCI-H460 lung): > 100 µM | TGI (SF-539 CNS): > 100 µM | TGI (UACC-257 melanoma): > 100 µM

Cn1c(=O)c(N=Nc2c(=O)n(C)c(=O)n3c2[nH]c2ccccc23)c2[nH]c3ccccc3n2c1=O
TGI (A498 renal): > 100 µM | TGI (MALME-3M melanoma): > 100 µM | TGI (NCI-H460 lung): > 100 µM | TGI (NCI-H522 lung): > 100 µM | TGI (SF-539 CNS): > 100 µM | TGI (SNB-19 CNS): 61.1 µM | TGI (UACC-257 melanoma): > 100 µM

N#CC(N)=Nc1ccccc1
TGI (A498 renal): > 100 µM | TGI (MALME-3M melanoma): > 100 µM | TGI (NCI-H460 lung): > 100 µM | TGI (NCI-H522 lung): > 100 µM | TGI (SF-539 CNS): > 100 µM | TGI (SNB-19 CNS): > 100 µM

Nc1ncnc2c1ncn2C1OC(CSCC(F)(F)F)C(O)C1O (configuration not stated)
TGI (MALME-3M melanoma): > 100 µM | TGI (NCI-H460 lung): > 100 µM | TGI (NCI-H522 lung): > 100 µM | TGI (SF-539 CNS): > 100 µM | TGI (SNB-19 CNS): > 100 µM | TGI (UACC-257 melanoma): > 100 µM

O=C1C2C3C=C4c5ccccc5N(c5ccccc5)C4(C2C(=O)N1c1ccccc1)C1C(=O)N(c2ccccc2)C(=O)C31 (configuration not stated)
TGI (A498 renal): 5.13 µM | TGI (MALME-3M melanoma): > 100 µM | TGI (NCI-H460 lung): > 100 µM | TGI (SNB-19 CNS): > 100 µM | TGI (UACC-257 melanoma): > 100 µM

O=c1ncccn1[C@@H]1O[C@H](CO)[C@H](O)C1O (some centres not stated)
TGI (A498 renal): > 100 µM | TGI (MALME-3M melanoma): > 100 µM | TGI (NCI-H460 lung): > 100 µM | TGI (NCI-H522 lung): > 100 µM | TGI (SF-539 CNS): > 100 µM | TGI (SNB-19 CNS): > 100 µM | TGI (UACC-257 melanoma): > 100 µM

COc1ccc(C2=Nn3c(nnc3-c3cc(Cl)cc(Cl)c3Cl)SC2)cc1
GI50 (A498 renal): 0.583 µM | TGI (A498 renal): > 100 µM | GI50 (BT-549 breast): 0.661 µM | TGI (BT-549 breast): > 21.9 µM | GI50 (MALME-3M melanoma): 0.44 µM | TGI (MALME-3M melanoma): > 50.5 µM | GI50 (MCF7 breast): 0.326 µM | TGI (MCF7 breast): > 100 µM | GI50 (NCI-H460 lung): 0.502 µM | TGI (NCI-H460 lung): > 100 µM | GI50 (NCI-H522 lung): 0.256 µM | TGI (NCI-H522 lung): 2.51 µM | GI50 (SF-539 CNS): 0.225 µM | TGI (SF-539 CNS): 0.741 µM | GI50 (SNB-19 CNS): 0.402 µM | TGI (SNB-19 CNS): 55.1 µM | GI50 (UACC-257 melanoma): 0.362 µM | TGI (UACC-257 melanoma): > 95.3 µM

COC(=O)c1sc(C(=O)OC)c2c1CS(=O)C2
TGI (A498 renal): > 100 µM | TGI (MALME-3M melanoma): > 100 µM | TGI (NCI-H522 lung): > 100 µM | TGI (SF-539 CNS): > 100 µM | TGI (SNB-19 CNS): > 100 µM | TGI (UACC-257 melanoma): > 100 µM

COc1ccc2nccc(C3=CCC4CCN(C(=O)c5ccccc5)C3C4)c2c1 (configuration not stated)
TGI (A498 renal): > 100 µM | TGI (MALME-3M melanoma): > 100 µM | TGI (NCI-H460 lung): > 100 µM | TGI (NCI-H522 lung): > 100 µM | TGI (SF-539 CNS): > 100 µM | TGI (SNB-19 CNS): > 100 µM | TGI (UACC-257 melanoma): > 100 µM

COC(=O)C1=CO[C@@H](OC2CC(CO)C(O)C(O)C2O)[C@@H]2[C@@H](C)[C@@H](OC(=O)/C=C/c3ccccc3)[C@@H](O)[C@H]12 (some centres not stated) (tested in a mixture with another compound)
TGI (A498 renal): > 100 µM | TGI (MALME-3M melanoma): > 100 µM | TGI (NCI-H522 lung): > 100 µM | TGI (SF-539 CNS): > 100 µM | TGI (UACC-257 melanoma): > 100 µM

Cn1c(=O)nc2n(-c3ccc(O)cc3)c3ccccc3nc-2c1=O
TGI (A498 renal): > 100 µM | TGI (MALME-3M melanoma): 69.4 µM | TGI (NCI-H460 lung): > 100 µM | TGI (NCI-H522 lung): > 100 µM | TGI (SF-539 CNS): 59.7 µM | TGI (SNB-19 CNS): > 100 µM | TGI (UACC-257 melanoma): > 100 µM

O=C1C=CC(=O)c2c1ccc1c3ccccc3n(Cc3ccc([N+](=O)[O-])cc3)c21
TGI (BT-549 breast): > 100 µM | TGI (MCF7 breast): > 100 µM | TGI (NCI-H460 lung): > 100 µM | TGI (NCI-H522 lung): 55.4 µM | TGI (SF-539 CNS): > 100 µM | TGI (SNB-19 CNS): > 100 µM | TGI (T-47D breast): > 100 µM | TGI (UACC-257 melanoma): > 100 µM

CC1=C(C(=O)Nc2ccccc2C)C(c2ccc(Cl)cc2)C(C(=O)Nc2ccccc2C)=C(C)N1
TGI (MALME-3M melanoma): > 100 µM | TGI (NCI-H460 lung): > 100 µM | TGI (NCI-H522 lung): > 100 µM | TGI (SF-539 CNS): > 100 µM | TGI (SNB-19 CNS): > 100 µM | TGI (UACC-257 melanoma): > 100 µM

From PubChem BioAssay (NCI)
